# Data reported in ChEMBL document CHEMBL5678816, “A Next-Generation TRK Kinase Inhibitor Overcomes Acquired Resistance to Prior TRK Kinase Inhibition in Patients with TRK Fusion-Positive Solid Tumors” (Cancer Discov, 2017).
# Calls of active or inactive are those of the source. No cut-off for these calls is given here.
# Legend:
# [1] = tested on: SCC-25; experiment: Inhibition of cell proliferation in human SCC-25 cells upto 10 umol/L incubated for 72 hrs by DAPI staining based analysis; assay type: functional; conditions: dose <= 10.0 µmol/L
# [2] = Cmin in adult patient with recurrent LMNA-NTRK1 rearranged colorectal cancer at 50 mg administered twice a day as powder-in-capsule or liquid formulation for 1 day and measured 10 hrs post dose by LC-MS/MS analysis; assay type: ADME; conditions: human, in vivo, po, read-out: Cmin
# [3] = tested on: CHL-1; experiment: Inhibition of cell proliferation in human CHL-1 cells upto 10 umol/L incubated for 72 hrs by DAPI staining based analysis; assay type: functional; conditions: dose <= 10.0 µmol/L
# [4] = Inhibition of cell proliferation in MPRIP-NTRK1 fusion positive human CUTO-3 cells incubated for 72 hrs by DAPI staining based analysis; assay type: functional; conditions: CUTO-3, 72 h
# [5] = molecular target: Aurora kinase A (Homo sapiens) (UniProt O14965); experiment: Inhibition of AURKA (unknown origin) at 1 uM in presence of ATP relative to control; values are per cent of control
# [6] = molecular target: SRSF protein kinase 3 (Homo sapiens) (UniProt Q9UPE1); experiment: Inhibition of MSSK1 (unknown origin) at 1 uM in presence of ATP relative to control; values are per cent of control
# [7] = molecular target: Protein kinase C epsilon type (Homo sapiens) (UniProt Q02156); experiment: Inhibition of PKCepsilon (unknown origin) at 1 uM in presence of ATP relative to control; values are per cent of control
# [8] = molecular target: Ephrin type-A receptor 7 (Homo sapiens) (UniProt Q15375); experiment: Inhibition of EphA7 (unknown origin) at 1 uM in presence of ATP relative to control; values are per cent of control
# Chain of Ephrin type-A receptor 7 (Homo sapiens) (Q15375 28-998 limits assumed): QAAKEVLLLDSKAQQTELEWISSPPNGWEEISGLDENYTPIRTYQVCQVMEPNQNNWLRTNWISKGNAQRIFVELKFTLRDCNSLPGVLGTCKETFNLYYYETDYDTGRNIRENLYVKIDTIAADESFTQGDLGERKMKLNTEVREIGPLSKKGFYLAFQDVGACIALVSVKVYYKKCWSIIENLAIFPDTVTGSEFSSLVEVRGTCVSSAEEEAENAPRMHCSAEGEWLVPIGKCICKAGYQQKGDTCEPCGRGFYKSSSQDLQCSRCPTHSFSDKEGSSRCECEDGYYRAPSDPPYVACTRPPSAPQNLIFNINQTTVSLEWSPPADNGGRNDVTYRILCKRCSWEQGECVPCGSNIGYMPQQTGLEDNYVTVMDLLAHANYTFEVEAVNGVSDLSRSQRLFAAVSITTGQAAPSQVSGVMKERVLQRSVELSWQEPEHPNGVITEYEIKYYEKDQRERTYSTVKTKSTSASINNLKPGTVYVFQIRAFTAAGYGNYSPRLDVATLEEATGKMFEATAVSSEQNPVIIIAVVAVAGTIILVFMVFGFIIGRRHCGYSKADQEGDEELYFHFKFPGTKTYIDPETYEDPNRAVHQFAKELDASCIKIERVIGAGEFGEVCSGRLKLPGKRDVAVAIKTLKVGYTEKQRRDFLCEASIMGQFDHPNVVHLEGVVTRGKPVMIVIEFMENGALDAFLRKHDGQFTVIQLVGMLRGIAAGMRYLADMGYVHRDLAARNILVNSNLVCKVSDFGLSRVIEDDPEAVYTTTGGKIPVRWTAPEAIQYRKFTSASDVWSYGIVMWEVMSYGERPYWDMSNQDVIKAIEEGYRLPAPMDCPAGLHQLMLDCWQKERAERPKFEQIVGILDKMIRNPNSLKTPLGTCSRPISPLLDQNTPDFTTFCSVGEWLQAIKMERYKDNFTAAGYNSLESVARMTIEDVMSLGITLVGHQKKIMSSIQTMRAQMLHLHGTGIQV
# [9] = tested on: EFM-19; experiment: Inhibition of cell proliferation in human EFM-19 cells upto 10 umol/L incubated for 72 hrs by DAPI staining based analysis; assay type: functional; conditions: dose <= 10.0 µmol/L
# [10] = molecular target: MAP kinase-activated protein kinase 3 (Homo sapiens) (UniProt Q16644); experiment: Inhibition of MAPKAP-K3 (unknown origin) at 1 uM in presence of ATP relative to control; values are per cent of control
# [11] = species: Homo sapiens; experiment: Inhibition of p70S6K (unknown origin) at 1 uM in presence of ATP relative to control; values are per cent of control
# [12] = Cmax in adult patient with recurrent LMNA-NTRK1 rearranged colorectal cancer at 50 mg administered twice a day as powder-in-capsule or liquid formulation for 1 day by LC-MS/MS analysis; assay type: ADME; conditions: human, in vivo, po
# [13] = tested on: NCI-H520; experiment: Inhibition of cell proliferation in human NCI-H520 cells upto 10 umol/L incubated for 72 hrs by DAPI staining based analysis; assay type: functional; conditions: dose <= 10.0 µmol/L
# [14] = molecular target: Mast/stem cell growth factor receptor Kit (Homo sapiens) (UniProt P10721); experiment: Inhibition of KIT (unknown origin) at 1 uM in presence of ATP relative to control; values are per cent of control
# [15] = tested on: TF-1; experiment: Inhibition of cell proliferation in human TF-1 cells upto 10 umol/L incubated for 72 hrs by DAPI staining based analysis; assay type: functional; conditions: dose <= 10.0 µmol/L
# [16] = tested on: SCaBER; experiment: Inhibition of cell proliferation in human SCaBER cells upto 10 umol/L incubated for 72 hrs by DAPI staining based analysis; assay type: functional; conditions: dose <= 10.0 µmol/L
# [17] = molecular target: Serine/threonine-protein kinase MARK1 (Homo sapiens) (UniProt Q9P0L2); experiment: Inhibition of MARK1 (unknown origin) at 1 uM in presence of ATP relative to control; values are per cent of control
# [18] = tested on: NIH3T3; experiment: In vivo inhibition of […] in nu/nu NCr mouse implanted with mouse NIH3T3 cells harboring extracellular domain deleted […] assessed as reduction in […] phosphorylation at 60 mg/kg, po administered once daily for 3 days and measured after 2 hrs post last dose by ELISA; assay type: functional, organism-based; conditions: time 3.0 day
# [19] = tested on: SK-LMS-1; experiment: Inhibition of cell proliferation in human SK-LMS-1 cells upto 10 umol/L incubated for 72 hrs by DAPI staining based analysis; assay type: functional; conditions: dose <= 10.0 µmol/L
# [20] = tested on: NCI-H661; experiment: Inhibition of cell proliferation in human NCI-H661 cells upto 10 umol/L incubated for 72 hrs by DAPI staining based analysis; assay type: functional; conditions: dose <= 10.0 µmol/L
# [21] = molecular target: Mitogen-activated protein kinase 14 (Homo sapiens) (UniProt Q16539); experiment: Inhibition of p38alpha (unknown origin) at 1 uM in presence of ATP relative to control; values are per cent of control
# [22] = tested on: MG-63; experiment: Inhibition of cell proliferation in human MG-63 cells upto 10 umol/L incubated for 72 hrs by DAPI staining based analysis; assay type: functional; conditions: dose <= 10.0 µmol/L
# [23] = molecular target: Mitogen-activated protein kinase kinase kinase 5 (Homo sapiens) (UniProt Q99683); experiment: Inhibition of MAP3K5 (unknown origin) at 1 uM in presence of ATP relative to control; values are per cent of control
# Chain of Mitogen-activated protein kinase kinase kinase 5 (Homo sapiens) (Q99683 whole entry): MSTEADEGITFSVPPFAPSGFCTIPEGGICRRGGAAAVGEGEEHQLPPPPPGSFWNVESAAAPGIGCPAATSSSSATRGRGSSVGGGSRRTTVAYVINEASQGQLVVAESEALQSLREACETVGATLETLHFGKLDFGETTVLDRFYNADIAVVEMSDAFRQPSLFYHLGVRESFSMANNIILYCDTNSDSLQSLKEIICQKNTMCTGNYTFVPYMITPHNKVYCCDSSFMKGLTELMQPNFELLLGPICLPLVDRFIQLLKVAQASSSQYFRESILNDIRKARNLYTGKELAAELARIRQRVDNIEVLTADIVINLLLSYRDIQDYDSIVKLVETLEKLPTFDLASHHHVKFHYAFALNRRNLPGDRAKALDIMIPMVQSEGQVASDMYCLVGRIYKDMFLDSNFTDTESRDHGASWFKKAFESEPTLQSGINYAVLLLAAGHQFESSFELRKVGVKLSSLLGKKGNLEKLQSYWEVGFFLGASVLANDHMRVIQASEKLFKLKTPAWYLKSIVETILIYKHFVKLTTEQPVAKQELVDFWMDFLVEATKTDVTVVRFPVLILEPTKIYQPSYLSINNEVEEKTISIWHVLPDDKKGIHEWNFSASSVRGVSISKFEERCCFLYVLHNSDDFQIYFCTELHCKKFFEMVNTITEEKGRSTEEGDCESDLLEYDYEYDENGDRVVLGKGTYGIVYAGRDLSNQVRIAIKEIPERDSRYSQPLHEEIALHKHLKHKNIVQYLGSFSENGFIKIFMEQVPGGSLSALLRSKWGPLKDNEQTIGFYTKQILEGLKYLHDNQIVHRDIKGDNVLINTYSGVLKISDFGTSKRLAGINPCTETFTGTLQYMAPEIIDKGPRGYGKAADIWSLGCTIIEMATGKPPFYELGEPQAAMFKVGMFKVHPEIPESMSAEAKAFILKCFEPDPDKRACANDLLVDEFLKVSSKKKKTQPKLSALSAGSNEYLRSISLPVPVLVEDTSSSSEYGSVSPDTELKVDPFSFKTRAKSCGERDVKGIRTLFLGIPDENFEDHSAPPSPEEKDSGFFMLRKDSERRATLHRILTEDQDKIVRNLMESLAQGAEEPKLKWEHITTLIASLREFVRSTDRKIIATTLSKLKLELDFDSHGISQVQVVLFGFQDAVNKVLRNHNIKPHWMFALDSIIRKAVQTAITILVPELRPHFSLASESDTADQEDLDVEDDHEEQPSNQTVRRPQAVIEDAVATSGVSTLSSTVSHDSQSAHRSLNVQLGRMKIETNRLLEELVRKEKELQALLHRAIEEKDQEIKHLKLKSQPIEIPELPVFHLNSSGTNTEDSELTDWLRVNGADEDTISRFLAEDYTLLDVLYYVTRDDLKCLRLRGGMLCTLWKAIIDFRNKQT
# [24] = tested on: CAL-27; experiment: Inhibition of cell proliferation in human CAL-27 cells upto 10 umol/L incubated for 72 hrs by DAPI staining based analysis; assay type: functional; conditions: dose <= 10.0 µmol/L
# [25] = tested on: DMS-114; experiment: Inhibition of cell proliferation in human DMS-114 cells upto 10 umol/L incubated for 72 hrs by DAPI staining based analysis; assay type: functional; conditions: dose <= 10.0 µmol/L
# [26] = tested on: DBTRG-05MG; experiment: Inhibition of cell proliferation in human DBTRG-05MG cells upto 10 umol/L incubated for 72 hrs by DAPI staining based analysis; assay type: functional; conditions: dose <= 10.0 µmol/L
# [27] = molecular target: [Pyruvate dehydrogenase (acetyl-transferring)] kinase isozyme 1, mitochondrial (Homo sapiens) (UniProt Q15118); experiment: Inhibition of PDK1 (unknown origin) at 1 uM in presence of ATP relative to control; values are per cent of control
# [28] = species: Homo sapiens; experiment: Inhibition of PKCgamma (unknown origin) at 1 uM in presence of ATP relative to control; values are per cent of control
# [29] = molecular target: Tyrosine-protein kinase Fgr (Homo sapiens) (UniProt P09769); experiment: Inhibition of Fgr (unknown origin) at 1 uM in presence of ATP relative to control; values are per cent of control
# Chain of Tyrosine-protein kinase Fgr (Homo sapiens) (P09769 2-529 limits assumed): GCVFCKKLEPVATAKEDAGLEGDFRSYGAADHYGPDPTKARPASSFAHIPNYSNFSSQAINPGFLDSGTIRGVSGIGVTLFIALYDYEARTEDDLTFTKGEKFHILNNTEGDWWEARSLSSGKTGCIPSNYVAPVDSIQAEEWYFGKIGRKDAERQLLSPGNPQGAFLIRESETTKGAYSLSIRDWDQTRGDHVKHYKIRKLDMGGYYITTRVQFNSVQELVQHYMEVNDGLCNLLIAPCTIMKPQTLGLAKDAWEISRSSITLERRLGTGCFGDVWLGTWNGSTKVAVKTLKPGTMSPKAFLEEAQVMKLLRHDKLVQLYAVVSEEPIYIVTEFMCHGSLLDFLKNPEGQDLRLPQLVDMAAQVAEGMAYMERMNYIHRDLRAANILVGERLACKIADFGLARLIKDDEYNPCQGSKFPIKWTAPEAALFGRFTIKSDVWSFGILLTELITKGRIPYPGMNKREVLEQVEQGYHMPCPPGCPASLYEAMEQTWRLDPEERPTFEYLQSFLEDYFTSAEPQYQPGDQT
# [30] = molecular target: Death-associated protein kinase 1 (Homo sapiens) (UniProt P53355); experiment: Inhibition of DAPK1 (unknown origin) at 1 uM in presence of ATP relative to control; values are per cent of control
# Chain of Death-associated protein kinase 1 (Homo sapiens) (P53355 whole entry, looked up): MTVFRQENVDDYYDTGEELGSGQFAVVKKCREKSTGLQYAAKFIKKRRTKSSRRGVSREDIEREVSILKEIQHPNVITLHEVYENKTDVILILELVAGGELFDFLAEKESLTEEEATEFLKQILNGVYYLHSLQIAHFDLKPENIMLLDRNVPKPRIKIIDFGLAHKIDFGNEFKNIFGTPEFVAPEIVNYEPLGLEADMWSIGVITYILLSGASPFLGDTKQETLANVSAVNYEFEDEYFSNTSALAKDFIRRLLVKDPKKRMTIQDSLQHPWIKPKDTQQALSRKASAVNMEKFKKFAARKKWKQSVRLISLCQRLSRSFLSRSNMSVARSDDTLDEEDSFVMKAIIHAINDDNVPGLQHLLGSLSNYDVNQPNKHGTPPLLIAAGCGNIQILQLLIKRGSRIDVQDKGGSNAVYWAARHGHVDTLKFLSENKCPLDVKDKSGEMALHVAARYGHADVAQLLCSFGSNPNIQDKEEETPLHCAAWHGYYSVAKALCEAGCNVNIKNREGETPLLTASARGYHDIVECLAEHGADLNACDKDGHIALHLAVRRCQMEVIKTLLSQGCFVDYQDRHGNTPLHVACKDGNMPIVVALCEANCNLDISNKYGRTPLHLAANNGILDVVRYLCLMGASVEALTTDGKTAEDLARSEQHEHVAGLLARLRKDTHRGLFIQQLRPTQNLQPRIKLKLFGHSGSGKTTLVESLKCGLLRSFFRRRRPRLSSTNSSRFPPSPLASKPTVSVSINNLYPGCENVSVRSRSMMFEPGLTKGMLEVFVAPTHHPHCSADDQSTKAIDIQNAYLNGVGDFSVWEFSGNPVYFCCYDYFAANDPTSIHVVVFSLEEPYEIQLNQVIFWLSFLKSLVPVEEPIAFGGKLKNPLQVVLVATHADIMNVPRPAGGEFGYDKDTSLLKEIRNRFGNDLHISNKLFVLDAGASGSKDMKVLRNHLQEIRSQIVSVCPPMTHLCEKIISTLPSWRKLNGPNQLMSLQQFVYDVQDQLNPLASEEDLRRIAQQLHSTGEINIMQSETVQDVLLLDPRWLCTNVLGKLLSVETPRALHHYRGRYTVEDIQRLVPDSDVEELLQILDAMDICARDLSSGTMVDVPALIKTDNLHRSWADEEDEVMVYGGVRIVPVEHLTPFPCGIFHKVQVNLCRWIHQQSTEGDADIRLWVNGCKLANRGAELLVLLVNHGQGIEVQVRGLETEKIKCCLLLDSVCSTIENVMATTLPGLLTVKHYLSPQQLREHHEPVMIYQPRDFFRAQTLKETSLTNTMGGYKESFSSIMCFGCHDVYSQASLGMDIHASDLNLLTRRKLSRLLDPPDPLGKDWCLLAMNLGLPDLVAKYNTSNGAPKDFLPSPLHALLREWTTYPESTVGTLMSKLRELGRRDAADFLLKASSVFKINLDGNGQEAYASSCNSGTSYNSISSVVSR
# [31] = molecular target: Calcium/calmodulin-dependent protein kinase type II subunit beta (Homo sapiens) (UniProt Q13554); experiment: Inhibition of CAMK2b (unknown origin) at 1 uM in presence of ATP relative to control; values are per cent of control
# Chain of Calcium/calmodulin-dependent protein kinase type II subunit beta (Homo sapiens) (Q13554 whole entry): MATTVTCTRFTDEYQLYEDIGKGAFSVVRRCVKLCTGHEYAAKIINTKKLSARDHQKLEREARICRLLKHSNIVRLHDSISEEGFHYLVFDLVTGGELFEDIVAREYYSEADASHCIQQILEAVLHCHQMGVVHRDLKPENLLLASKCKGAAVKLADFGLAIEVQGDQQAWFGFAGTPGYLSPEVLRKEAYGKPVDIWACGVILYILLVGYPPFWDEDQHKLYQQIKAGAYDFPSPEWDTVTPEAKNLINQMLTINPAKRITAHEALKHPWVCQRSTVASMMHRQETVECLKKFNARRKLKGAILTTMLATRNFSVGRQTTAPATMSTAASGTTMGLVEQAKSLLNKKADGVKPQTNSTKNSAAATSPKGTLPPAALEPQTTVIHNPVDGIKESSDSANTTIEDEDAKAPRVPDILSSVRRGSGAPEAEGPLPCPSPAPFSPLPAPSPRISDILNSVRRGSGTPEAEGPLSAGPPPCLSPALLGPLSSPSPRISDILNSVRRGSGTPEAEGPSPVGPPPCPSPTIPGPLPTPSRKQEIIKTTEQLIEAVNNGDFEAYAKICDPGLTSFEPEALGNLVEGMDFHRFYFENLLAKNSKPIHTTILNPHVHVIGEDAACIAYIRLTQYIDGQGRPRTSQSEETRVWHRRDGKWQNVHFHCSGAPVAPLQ
smiles,measurement,setting,value
C[C@@H]1CCc2ncc(F)cc2[C@H]2CCCN2c2ccn3ncc(c3n2)C(=O)N1 [SELITRECTINIB],inhibition,[1],inactive
same,concentration at 34 h,[2],0.00186 µg/mL
same,inhibition,[3],inactive
same,IC50,[4],≤ 5 nM
same,residual activity,[5],97%
same,residual activity,[6],122%
same,residual activity,[7],102%
same,residual activity,[8],103%
same,inhibition,[9],inactive
same,residual activity,[10],102%
same,residual activity,[11],117%
same,Cmax,[12],0.35 µg/mL
same,inhibition,[13],inactive
same,residual activity,[14],100%
same,inhibition,[15],inactive
same,inhibition,[16],inactive
same,residual activity,[17],94%
same,inhibition,[18],Active
same,inhibition,[19],inactive
same,inhibition,[20],inactive
same,residual activity,[21],109%
same,inhibition,[22],inactive
same,residual activity,[23],106%
same,inhibition,[24],inactive
same,inhibition,[25],inactive
same,inhibition,[26],inactive
same,residual activity,[27],101%
same,residual activity,[28],97.5%
same,residual activity,[29],96%
same,residual activity,[30],120%
same,residual activity,[31],100%
